Measured values published in paper PMC10046369, “Low-Affinity/High-Selectivity Dopamine Transport Inhibition Sufficient to Rescue Cognitive Functions in the Aging Rat” (Biomolecules, 2023).

Assays:
Assay in all cases: biochemical
Set-up in all cases: KINOMEscan competition binding panel, per cent of control
Details in all cases: read-out: %Ctrl @ 2800nM
[1] = target: STK16 (Homo sapiens, UniProt O75716)
Procedure, shortened: (§1)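 Values are expressed as percent of control, calculated as ((test − positive control)/(negative control − positive control)) × 100, so lower numbers mean stronger hits. Binding was measured by KINOMEscan competition assay in a 450-kinase human panel including disease mutants, using the contractor's validated protocol.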

[2] = target: T1, MEK4 (Homo sapiens, UniProt P45985)
T1 construct: gene MAP2K4
Procedure, shortened: as §1

[3] = target: MYO3B (Homo sapiens, UniProt Q8WXR4)
Sequence of MYO3B (Q8WXR4 whole entry): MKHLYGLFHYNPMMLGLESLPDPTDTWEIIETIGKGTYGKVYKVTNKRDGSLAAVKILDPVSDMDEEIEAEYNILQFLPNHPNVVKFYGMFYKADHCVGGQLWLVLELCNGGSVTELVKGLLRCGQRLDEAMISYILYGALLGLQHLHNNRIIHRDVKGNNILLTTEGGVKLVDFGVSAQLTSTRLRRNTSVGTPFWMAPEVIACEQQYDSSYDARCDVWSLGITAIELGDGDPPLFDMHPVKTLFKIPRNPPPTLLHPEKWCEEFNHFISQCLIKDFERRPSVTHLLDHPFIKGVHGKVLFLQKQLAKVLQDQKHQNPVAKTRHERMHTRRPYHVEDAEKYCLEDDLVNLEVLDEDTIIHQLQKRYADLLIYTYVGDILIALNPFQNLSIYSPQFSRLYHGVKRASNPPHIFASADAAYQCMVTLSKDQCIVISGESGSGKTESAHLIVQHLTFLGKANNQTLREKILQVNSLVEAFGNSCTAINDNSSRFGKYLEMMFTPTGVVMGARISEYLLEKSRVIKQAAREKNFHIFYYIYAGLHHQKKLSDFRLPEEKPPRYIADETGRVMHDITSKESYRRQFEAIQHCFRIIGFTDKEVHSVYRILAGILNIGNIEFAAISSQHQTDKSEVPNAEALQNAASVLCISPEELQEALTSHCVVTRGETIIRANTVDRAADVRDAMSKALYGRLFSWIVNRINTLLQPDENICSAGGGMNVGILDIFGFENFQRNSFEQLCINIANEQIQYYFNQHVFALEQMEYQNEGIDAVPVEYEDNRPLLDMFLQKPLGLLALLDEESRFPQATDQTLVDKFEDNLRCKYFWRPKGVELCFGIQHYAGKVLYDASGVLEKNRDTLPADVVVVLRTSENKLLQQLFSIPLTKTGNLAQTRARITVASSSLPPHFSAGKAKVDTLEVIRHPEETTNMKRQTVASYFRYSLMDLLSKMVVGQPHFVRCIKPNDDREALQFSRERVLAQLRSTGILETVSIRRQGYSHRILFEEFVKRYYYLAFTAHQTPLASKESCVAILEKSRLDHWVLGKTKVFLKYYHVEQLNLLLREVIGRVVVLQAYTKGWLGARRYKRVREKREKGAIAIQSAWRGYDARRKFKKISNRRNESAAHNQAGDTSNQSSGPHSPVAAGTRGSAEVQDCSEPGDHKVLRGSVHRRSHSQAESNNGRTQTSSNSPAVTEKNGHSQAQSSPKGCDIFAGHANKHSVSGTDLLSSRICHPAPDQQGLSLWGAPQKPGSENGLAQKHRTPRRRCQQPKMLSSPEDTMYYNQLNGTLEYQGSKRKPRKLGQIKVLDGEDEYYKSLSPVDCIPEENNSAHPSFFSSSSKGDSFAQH
Procedure, shortened: as §1

[4] = target: T2, RSK4(Kin.Dom.2-C-terminal) (Homo sapiens, UniProt Q9UK32)
T2 construct: gene RPS6KA6; Kin.Dom.2-C-terminal
Procedure, shortened: as §1

[5] = target: T3, ERK4 (Homo sapiens, UniProt P31152)
T3 construct: gene MAPK4
Procedure, shortened: as §1

[6] = target: T4, JNK2 (Homo sapiens, UniProt P45984)
T4 construct: gene MAPK9
Procedure, shortened: as §1

[7] = target: FLT3-autoinhibited (Homo sapiens, UniProt P36888)
Procedure, shortened: as §1

[8] = target: MAK (Homo sapiens, UniProt P20794)
Sequence of MAK (P20794 whole entry): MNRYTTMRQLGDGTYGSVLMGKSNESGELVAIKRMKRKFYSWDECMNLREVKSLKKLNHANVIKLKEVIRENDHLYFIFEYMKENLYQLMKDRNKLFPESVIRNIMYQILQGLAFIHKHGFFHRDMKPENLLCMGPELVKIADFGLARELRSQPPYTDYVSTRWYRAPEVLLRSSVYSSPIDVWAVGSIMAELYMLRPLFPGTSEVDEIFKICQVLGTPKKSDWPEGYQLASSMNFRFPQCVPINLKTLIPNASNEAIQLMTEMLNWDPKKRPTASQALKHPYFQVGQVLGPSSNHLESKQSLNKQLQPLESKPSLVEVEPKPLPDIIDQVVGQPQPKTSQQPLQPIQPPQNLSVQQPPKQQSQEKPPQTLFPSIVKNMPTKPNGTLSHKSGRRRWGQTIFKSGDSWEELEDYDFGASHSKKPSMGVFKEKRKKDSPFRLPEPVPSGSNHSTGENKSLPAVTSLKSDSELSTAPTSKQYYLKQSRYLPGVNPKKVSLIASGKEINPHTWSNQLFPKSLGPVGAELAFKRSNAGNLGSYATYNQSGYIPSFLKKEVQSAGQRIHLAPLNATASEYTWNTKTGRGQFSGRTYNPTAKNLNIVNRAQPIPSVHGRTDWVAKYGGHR
Procedure, shortened: as §1

[9] = target: CDK4 (Homo sapiens, UniProt P11802)
Procedure, shortened: as §1

[10] = target: STK39 (Homo sapiens, UniProt Q9UEW8)
Procedure, shortened: as §1

[11] = target: NEK11 (Homo sapiens, UniProt Q8NG66)
Sequence of NEK11 (Q8NG66 whole entry): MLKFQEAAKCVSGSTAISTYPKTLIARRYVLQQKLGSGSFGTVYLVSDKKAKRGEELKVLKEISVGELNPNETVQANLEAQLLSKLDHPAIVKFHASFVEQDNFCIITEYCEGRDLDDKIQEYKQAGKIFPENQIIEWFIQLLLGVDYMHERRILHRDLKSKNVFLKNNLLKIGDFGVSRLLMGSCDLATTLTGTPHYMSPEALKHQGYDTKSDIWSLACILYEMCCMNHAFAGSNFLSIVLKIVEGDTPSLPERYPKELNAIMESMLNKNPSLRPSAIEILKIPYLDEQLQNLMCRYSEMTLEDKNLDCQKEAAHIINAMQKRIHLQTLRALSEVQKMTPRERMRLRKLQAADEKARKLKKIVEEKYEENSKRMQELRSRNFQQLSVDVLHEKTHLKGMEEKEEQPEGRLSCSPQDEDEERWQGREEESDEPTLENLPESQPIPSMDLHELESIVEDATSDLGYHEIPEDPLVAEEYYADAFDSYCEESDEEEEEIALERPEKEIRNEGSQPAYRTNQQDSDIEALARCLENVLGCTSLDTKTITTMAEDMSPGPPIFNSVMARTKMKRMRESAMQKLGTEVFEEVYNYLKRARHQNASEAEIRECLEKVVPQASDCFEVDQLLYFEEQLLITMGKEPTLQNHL
Procedure, shortened: as §1

[12] = target: PIP5K1C (Homo sapiens, UniProt O60331)
Procedure, shortened: as §1

[13] = target: PLK2 (Homo sapiens, UniProt Q9NYY3)
Procedure, shortened: as §1

[14] = target: TAOK2 (Homo sapiens, UniProt Q9UL54)
Procedure, shortened: as §1

[15] = target: EPHB6 (Homo sapiens, UniProt O15197)
Procedure, shortened: as §1

[16] = target: HIPK2 (Homo sapiens, UniProt Q9H2X6)
Procedure, shortened: as §1

[17] = target: EGFR(E746-A750del) (Homo sapiens, UniProt P00533, DEL746-750)
Procedure, shortened: as §1

[18] = target: MAPKAPK2 (Homo sapiens, UniProt P49137)
Procedure, shortened: as §1

[19] = target: NEK4 (Homo sapiens, UniProt P51957)
Procedure, shortened: as §1

[20] = target: T5, ABL1(T315I)-phosphorylated (Homo sapiens, UniProt P00519, T315I)
T5 construct: phosphorylated
Procedure, shortened: as §1

[21] = target: RET(V804L) (Homo sapiens, UniProt P07949, V804L)
Procedure, shortened: as §1

[22] = target: EGFR(L747-E749del, A750P) (Homo sapiens, UniProt P00533, A750P/DEL747-749)
Procedure, shortened: as §1

[23] = target: T6, NIK (Homo sapiens, UniProt Q99558)
T6 construct: gene MAP3K14
T6 sequence (Q99558 whole entry): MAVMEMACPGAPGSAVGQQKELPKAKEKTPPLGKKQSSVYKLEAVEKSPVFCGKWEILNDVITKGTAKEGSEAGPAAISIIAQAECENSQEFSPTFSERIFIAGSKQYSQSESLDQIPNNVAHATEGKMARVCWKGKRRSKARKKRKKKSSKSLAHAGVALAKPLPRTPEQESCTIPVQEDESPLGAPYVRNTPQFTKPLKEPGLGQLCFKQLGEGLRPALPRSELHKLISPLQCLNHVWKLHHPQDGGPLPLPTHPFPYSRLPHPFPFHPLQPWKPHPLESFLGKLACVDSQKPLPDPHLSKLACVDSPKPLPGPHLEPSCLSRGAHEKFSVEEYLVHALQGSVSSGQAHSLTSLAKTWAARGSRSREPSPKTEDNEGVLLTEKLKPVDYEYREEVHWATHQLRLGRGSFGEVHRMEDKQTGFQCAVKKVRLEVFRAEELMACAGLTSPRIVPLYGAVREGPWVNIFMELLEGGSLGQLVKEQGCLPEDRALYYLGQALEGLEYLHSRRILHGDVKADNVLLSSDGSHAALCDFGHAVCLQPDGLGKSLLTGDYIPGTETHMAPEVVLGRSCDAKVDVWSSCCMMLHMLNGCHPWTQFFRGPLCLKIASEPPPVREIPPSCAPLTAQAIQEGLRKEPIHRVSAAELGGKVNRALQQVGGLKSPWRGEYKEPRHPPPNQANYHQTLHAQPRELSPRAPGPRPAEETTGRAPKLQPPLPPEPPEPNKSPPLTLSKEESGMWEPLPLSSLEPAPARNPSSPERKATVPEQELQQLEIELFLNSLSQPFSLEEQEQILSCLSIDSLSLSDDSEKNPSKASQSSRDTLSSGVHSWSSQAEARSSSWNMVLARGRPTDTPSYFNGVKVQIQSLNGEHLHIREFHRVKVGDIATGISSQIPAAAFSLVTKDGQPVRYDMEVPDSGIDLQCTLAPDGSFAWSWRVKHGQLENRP
Procedure, shortened: as §1

[24] = target: EPHA4 (Homo sapiens, UniProt P54764)
Procedure, shortened: as §1

[25] = target: CAMK4 (Homo sapiens, UniProt Q16566)
Procedure, shortened: as §1

[26] = target: MET (Homo sapiens, UniProt P08581)
Sequence of MET (P08581 whole entry): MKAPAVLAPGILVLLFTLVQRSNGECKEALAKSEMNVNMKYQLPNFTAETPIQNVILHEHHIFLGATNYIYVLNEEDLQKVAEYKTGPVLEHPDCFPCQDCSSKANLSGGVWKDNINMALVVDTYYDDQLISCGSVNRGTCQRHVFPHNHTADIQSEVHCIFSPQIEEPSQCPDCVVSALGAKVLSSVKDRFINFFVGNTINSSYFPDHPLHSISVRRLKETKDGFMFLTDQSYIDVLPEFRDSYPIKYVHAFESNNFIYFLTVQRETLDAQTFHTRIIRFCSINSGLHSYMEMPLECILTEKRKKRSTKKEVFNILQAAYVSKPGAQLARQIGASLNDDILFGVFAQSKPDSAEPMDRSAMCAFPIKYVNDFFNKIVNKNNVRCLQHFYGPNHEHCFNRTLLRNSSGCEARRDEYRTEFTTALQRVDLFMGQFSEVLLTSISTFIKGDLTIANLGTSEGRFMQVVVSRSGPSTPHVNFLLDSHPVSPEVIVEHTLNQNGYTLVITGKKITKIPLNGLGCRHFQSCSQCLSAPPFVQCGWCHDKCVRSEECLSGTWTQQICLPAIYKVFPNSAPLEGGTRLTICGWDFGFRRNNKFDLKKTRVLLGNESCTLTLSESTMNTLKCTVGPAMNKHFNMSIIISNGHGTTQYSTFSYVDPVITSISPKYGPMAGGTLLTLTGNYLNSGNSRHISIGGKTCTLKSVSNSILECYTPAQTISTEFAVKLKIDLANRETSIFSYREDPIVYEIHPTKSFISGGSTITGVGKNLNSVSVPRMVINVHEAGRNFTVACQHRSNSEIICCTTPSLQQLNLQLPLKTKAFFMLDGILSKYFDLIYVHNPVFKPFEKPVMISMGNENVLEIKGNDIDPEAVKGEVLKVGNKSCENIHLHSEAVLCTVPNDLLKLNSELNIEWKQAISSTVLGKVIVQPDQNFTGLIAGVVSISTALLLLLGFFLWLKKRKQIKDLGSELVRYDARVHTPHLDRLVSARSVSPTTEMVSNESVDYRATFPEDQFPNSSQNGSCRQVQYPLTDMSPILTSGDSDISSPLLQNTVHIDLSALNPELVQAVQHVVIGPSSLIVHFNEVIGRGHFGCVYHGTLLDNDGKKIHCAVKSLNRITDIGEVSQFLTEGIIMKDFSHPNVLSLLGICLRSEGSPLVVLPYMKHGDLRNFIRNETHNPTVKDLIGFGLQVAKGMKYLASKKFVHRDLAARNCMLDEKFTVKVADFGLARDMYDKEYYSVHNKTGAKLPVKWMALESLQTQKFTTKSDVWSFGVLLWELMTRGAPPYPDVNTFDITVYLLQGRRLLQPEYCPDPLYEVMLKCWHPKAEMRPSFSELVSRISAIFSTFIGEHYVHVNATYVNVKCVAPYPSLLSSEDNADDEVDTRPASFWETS
Procedure, shortened: as §1

[O-][S@@+](Cc1cncs1)C(c1ccccc1)c1ccccc1 [S-CE-123, (S)-5-((Benzhydrylsulfinyl)Methyl)Thiazole]
remaining binding at 2.8 µM [1]: 97% | remaining binding at 2.8 µM [2]: 100% | remaining binding at 2.8 µM [3]: 52% | remaining binding at 2.8 µM [4]: 94% | remaining binding at 2.8 µM [5]: 100% | remaining binding at 2.8 µM [6]: 90% | remaining binding at 2.8 µM [7]: 99% | remaining binding at 2.8 µM [8]: 94% | remaining binding at 2.8 µM [9]: 100% | remaining binding at 2.8 µM [10]: 100% | remaining binding at 2.8 µM [11]: 100% | remaining binding at 2.8 µM [12]: 100% | remaining binding at 2.8 µM [13]: 89% | remaining binding at 2.8 µM [14]: 100% | remaining binding at 2.8 µM [15]: 89% | remaining binding at 2.8 µM [16]: 100% | remaining binding at 2.8 µM [17]: 93% | remaining binding at 2.8 µM [18]: 99% | remaining binding at 2.8 µM [19]: 83% | remaining binding at 2.8 µM [20]: 98% | remaining binding at 2.8 µM [21]: 91% | remaining binding at 2.8 µM [22]: 93% | remaining binding at 2.8 µM [23]: 100% | remaining binding at 2.8 µM [24]: 97% | remaining binding at 2.8 µM [25]: 91% | remaining binding at 2.8 µM [26]: 99%
